The record followed here is ChEMBL document CHEMBL4673236, “Synthesis and biological effect of lysosome-targeting fluorescent anion transporters with enhanced anionophoric activity” (Bioorg Med Chem Lett, 2020).

Series [1] can be described thus: Aniono-phoric activity in egg-yolk L-aphosphatidylcholine vesicle assessed as increase in efflux of chloride ion by pH discharge experiment.
A short description of series [2]: Induction of lysosome alkalization in human HeLa cells incubated for 4 hrs by acridine orange staining based confocal microscopic analysis. It counts as subcellular. Conditions: dose 1.5-5 µM.
A short description of series [3]: Induction of lysosome alkalization in human HeLa cells assessed as pixel intensity ratio of red fluorescence to green fluorescence at 5 uM incubated for 4 hrs by acridine orange staining based confocal microscopic analysis relative to control. The format is subcellular.
Series [4] can be described thus: Induction of lysosome alkalization in human HeLa cells assessed as increase in lysosomal pH incubated for 4 hrs by LysoSensor Green […] staining based confocal microscopic analysis. It counts as subcellular. To be noted: dose 1.5-5 µM.
The next series relates to HeLa. Kind of series: Induction of lysosomal alkalization in human HeLa cells assessed as reduction in Cathepsin B activity at 5 uM using MR-(RR2) as substrate preincubated for 5 hrs followed by substrate addition and measured after 1 hr by confocal microscopic analysis. It counts as functional, cell-based. Conditions: time 6.0 hrs.
The nature of series [5]: Aniono-phoric activity in egg-yolk L-aphosphatidylcholine vesicle assessed as increase in efflux of chloride ion at 0.5 mol% by electrode technique.
A short description of series [6]: Drug localization in lysosome of human HeLa cells at 20 uM incubated for 6 hrs by confocal microscopic analysis. The format is ADME, subcellular.

The source made the active and inactive calls. No cut-off for these calls is given here.

As to `Cc1cc(=O)oc2cc(Nc3c(Nc4ccc(N5CCOCC5)cc4)c(=O)c3=O)ccc12`, in series [1], the EC50 result is listed as “Nd(Insoluble)”. Moreover, the Activity result in series [2] and in series [4] was “Dose-dependent effect” in each case. Also, in series [3], the Ratio amounted to 0.69. The outcome in the series on HeLa was Active. Further, the outcome in series [5] was inactive.

Take `O=c1cc(CN2CCOCC2)c2ccc(Nc3c(Nc4cc(C(F)(F)F)cc(C(F)(F)F)c4)c(=O)c3=O)cc2o1`: in series [1], the EC50 is 9.09 mol%. Moreover, the Drug uptake entry in series [6] is on record as “Active”. Further, the Activity result in series [2] and in series [4] was “Dose-dependent effect” in each case. Further, in series [3], the Ratio amounted to 0.08. In addition, the result (in the series on HeLa; in series [5]) was Active.

Take `O=c1cc(CN2CCOCC2)c2ccc(Nc3c(Nc4ccc(C(F)(F)F)cc4)c(=O)c3=O)cc2o1`: the EC50 in series [1] stood at 0.11 mol%. Further, the Drug uptake entry in series [6] is listed as “Active”. Further, the Activity result in series [2] and in series [4] was “Dose-dependent effect” each time. The Ratio in series [3] was found to be 0.52. Further, the outcome in the series with HeLa was Active. For the same compound, the outcome in series [5] was inactive.

In the case of `Cc1cc(=O)oc2cc(Nc3c(Nc4ccccc4)c(=O)c3=O)ccc12`, the EC50 entry in series [1] is listed as “Nd(Insoluble)”. Besides, in series [6], the Drug uptake entry is given as “Not Active”. In addition, the result in series [5] was inactive.
